The structures appear in SMILES notation. Where only a bound is given, the exact number is not on record here.

In the first assay the test system is TGF-β induced PAI-1 production. The assay can be described thus: TGF-β induced PAI-1 production in HepG2 cells (Human Serpin E1/PAI-1 DuoSet). The assay is classed as cell-based. The following applies: Compound Concentration: 0.1 μM.
Experimental: HepG2 cells were seeded on a 96-well culture plate by 2×10^4 cells/well, and were incubated for 24 hours in the MEM medium containing 1% NEAA (Non-Essential Amino Acids), 1 mM pyruvate, and 10% FBS. Then, the medium was changed to a MEM medium containing 1% NEAA, 1 mM pyruvate and 1% FBS, and the cells were further incubated for 24 hours. Subsequently, after the medium was changed to a MEM medium containing 1% NEAA, 1 mM pyruvate and 1% FBS, and then the cells were treated with the test substances (final concentration: 1 μM or 0.1 μM) for one hour, TGF-β1 (final concentration: 1 ng/mL) was added and the cells were further incubated for 24 hours. As controls, a culture solution added TGF-β1 only, and a culture solution cultured without neither the test substances nor TGF-β1 were prepared. After the incubation, the PAI-1 amount was measured using Human Serpin E1/PAI-1 DuoSet (R&D Systems). The PAI-1 amount when treated with TGF-β1 only being “100%”, and the PAI-1 amount when treated without neither the test substances nor TGF-β1 being “0%”, the PAI-1 inhibition ratios of each test substance were calculated.
On to `O=C(Nc1cc(C(F)(F)F)cc(C(F)(F)F)c1)c1cc(F)ccc1O` [(5)], for which the “Inhibition Ratio (PAI-1)” value came out at 71.2%. Same read-out and setting: as for `O=C(Nc1cc(C(F)(F)F)cc(C(F)(F)F)c1)c1cc(Br)ccc1O` [(6)], the figure is 82.3%; as for `O=C(Nc1cc(C(F)(F)F)cc(C(F)(F)F)c1)c1cc([N+](=O)[O-])ccc1O` [(8)], 52.8%; as for `N#Cc1ccc(O)c(C(=O)Nc2cc(C(F)(F)F)cc(C(F)(F)F)c2)c1` [(9)], 59.4%. Take `O=C(Nc1cc(C(F)(F)F)cc(C(F)(F)F)c1)c1cc(C(F)(F)F)ccc1O` [(19)]: the “Inhibition Ratio (PAI-1)” value was 62.2%. Still for that read-out and setting: as for `O=C(Nc1cc(C(F)(F)F)cc(C(F)(F)F)c1)c1ccc(Cl)cc1O` [(33)], the figure is 63.3%; as for `CC(C)c1cc(Br)cc(C(=O)Nc2cc(C(F)(F)F)cc(C(F)(F)F)c2)c1O` [(99)], 59.1%.

The same assay, now with this note: Compound Concentration: 1 μM.
Turning to `O=C(Nc1cc(C(F)(F)F)cc(C(F)(F)F)c1)c1ccccc1O` [(4)], the “Inhibition Ratio (PAI-1)” value was more than 90%. As to `O=C(Nc1cc(C(F)(F)F)cc(C(F)(F)F)c1)c1cc(F)ccc1O` [(5)], the “Inhibition Ratio (PAI-1)” value is more than 90%. Turning to `O=C(Nc1cc(C(F)(F)F)cc(C(F)(F)F)c1)c1cc(Br)ccc1O` [(6)], the “Inhibition Ratio (PAI-1)” value is on record as more than 90%. `O=C(Nc1cc(C(F)(F)F)cc(C(F)(F)F)c1)c1cc(I)ccc1O` [(7)]: the “Inhibition Ratio (PAI-1)” value is on record as more than 90%.

`O=C(Nc1cc(C(F)(F)F)cc(C(F)(F)F)c1)c1cc([N+](=O)[O-])ccc1O` [(8)]: the “Inhibition Ratio (PAI-1)” value was 85.9%. Consider `N#Cc1ccc(O)c(C(=O)Nc2cc(C(F)(F)F)cc(C(F)(F)F)c2)c1` [(9)], for which the “Inhibition Ratio (PAI-1)” value is reported as more than 90%. Still for that read-out and setting: as for `Cc1ccc(O)c(C(=O)Nc2cc(C(F)(F)F)cc(C(F)(F)F)c2)c1` [(10)], the figure is 89.2%; as for `CC(C)(C)c1ccc(O)c(C(=O)Nc2cc(C(F)(F)F)cc(C(F)(F)F)c2)c1` [(11)], 70.5%; as for `CC(C)(/C=C/c1ccccc1)c1ccc(O)c(C(=O)Nc2cc(C(F)(F)F)cc(C(F)(F)F)c2)c1` [(14)], 86.6%.

Regarding `CC(C)(C#Cc1ccccc1)c1ccc(O)c(C(=O)Nc2cc(C(F)(F)F)cc(C(F)(F)F)c2)c1` [(15)], the “Inhibition Ratio (PAI-1)” value is listed as more than 90%. `O=C(Nc1cc(C(F)(F)F)cc(C(F)(F)F)c1)c1cc(-c2ccccc2)ccc1O` [(17)]: the “Inhibition Ratio (PAI-1)” value is 82.9%. On to `CC(C)(CCc1ccccc1)c1ccc(O)c(C(=O)Nc2cc(C(F)(F)F)cc(C(F)(F)F)c2)c1` [(18)], for which the “Inhibition Ratio (PAI-1)” value was determined as 55.4%. The same measure, in the same setting: as for `O=C(Nc1cc(C(F)(F)F)cc(C(F)(F)F)c1)c1cc(C(F)(F)F)ccc1O` [(19)], the figure is more than 90%; as for `O=C(Nc1cc(C(F)(F)F)cc(C(F)(F)F)c1)c1cc(C(F)(F)C(F)(F)F)ccc1O` [(20)], more than 90%; as for `CC(=O)c1ccc(O)c(C(=O)Nc2cc(C(F)(F)F)cc(C(F)(F)F)c2)c1` [(26)], 46.8%. With `COC(=O)c1ccc(O)c(C(=O)Nc2cc(C(F)(F)F)cc(C(F)(F)F)c2)c1` [(28)], the “Inhibition Ratio (PAI-1)” value was more than 90%. For the compound `CC(=O)Oc1ccccc1C(=O)Nc1cc(C(F)(F)F)cc(C(F)(F)F)c1` [(31)], the “Inhibition Ratio (PAI-1)” value turned out to be 75.2%. The same measure, in the same setting: as for `CC(=O)Oc1ccc(Cl)cc1C(=O)Nc1cc(C(F)(F)F)cc(C(F)(F)F)c1` [(32)], the figure is more than 90%.

For the compound `O=C(Nc1cc(C(F)(F)F)cc(C(F)(F)F)c1)c1ccc(Cl)cc1O` [(33)], the “Inhibition Ratio (PAI-1)” value is recorded as more than 90%. For the compound `O=C(Nc1cccc(C(F)(F)F)c1F)c1cc(Cl)ccc1O` [(35)], the “Inhibition Ratio (PAI-1)” value is given as more than 90%. The same measure, in the same setting: the same measure for `O=C(Nc1ccc(F)c(C(F)(F)F)c1)c1cc(Cl)ccc1O` [(36)]: more than 90%. For `O=C(Nc1cc(F)cc(C(F)(F)F)c1)c1cc(Cl)ccc1O` [(37)], the “Inhibition Ratio (PAI-1)” value is more than 90%. Regarding `N#Cc1ccc(NC(=O)c2cc(Br)ccc2O)cc1C(F)(F)F` [(39)], the “Inhibition Ratio (PAI-1)” value is more than 90%. In the case of `Cc1c(NC(=O)c2cc(Cl)ccc2O)cccc1C(F)(F)F` [(40)], the “Inhibition Ratio (PAI-1)” value is reported as more than 90%. Still for that read-out and setting: as for `O=C(Nc1ccc(C(F)(F)F)cc1)c1cc(Cl)ccc1O` [(43)], the figure is more than 90%. As for `O=C(Nc1cccc(Cl)c1)c1cc(Br)ccc1O` [(44)], the “Inhibition Ratio (PAI-1)” value was 82.4%. Still for that read-out and setting: the same measure for `O=C(Nc1ccc(Cl)cc1)c1cc(Br)ccc1O` [(45)]: more than 90%; for `O=C(Nc1cc(F)cc(F)c1)c1cc(Br)ccc1O` [(46)]: more than 90%. Take `O=C(Nc1cc(Cl)cc(Cl)c1)c1ccccc1O` [(47)]: the “Inhibition Ratio (PAI-1)” value was 35.6%. Take `O=C(Nc1cc(Cl)cc(Cl)c1)c1ccc(Cl)cc1O` [(48)]: the “Inhibition Ratio (PAI-1)” value is reported as more than 90%. Same read-out and setting: the same measure for `O=C(Nc1cc(Cl)c(Cl)c(Cl)c1)c1cc(Br)ccc1O` [(49)]: 70.7%; for `Cc1cc(C)cc(NC(=O)c2cc(Br)ccc2O)c1` [(50)]: 66.0%; for `CC(C)(C)c1cc(NC(=O)c2cc(Cl)ccc2O)cc(C(C)(C)C)c1` [(51)]: 42.8%. Same read-out and setting: as for `O=C(Nc1cccc(-c2ccccc2)c1)c1cc(Cl)ccc1O` [(52)], the figure is 81.0%.

`COc1cc(NC(=O)c2cc(Cl)ccc2O)cc(-c2ccccc2)c1` [(53)]: the “Inhibition Ratio (PAI-1)” value was 52.4%. For the compound `CC(=O)Oc1ccccc1C(=O)Nc1cc(Cl)cc(Cl)c1` [(54)], the “Inhibition Ratio (PAI-1)” value was determined as 78.9%.

`O=C(Nc1cc(C(F)(F)F)cc(C(F)(F)F)c1)c1c(O)cccc1O` [(55)]: the “Inhibition Ratio (PAI-1)” value is more than 90%. Take `Cc1ccc(C(=O)Nc2cc(C(F)(F)F)cc(C(F)(F)F)c2)c(O)c1` [(56)]: the “Inhibition Ratio (PAI-1)” value was more than 90%. Still for that read-out and setting: the same measure for `O=C(Nc1cc(C(F)(F)F)cc(C(F)(F)F)c1)c1cc(Cl)cc(Cl)c1O` [(57)]: more than 90%; for `O=C(Nc1cc(C(F)(F)F)cc(C(F)(F)F)c1)c1c(O)c(Cl)cc(Cl)c1Cl` [(59)]: more than 90%; for `O=C(Nc1cc(C(F)(F)F)cc(C(F)(F)F)c1)c1c(O)cccc1F` [(60)]: 38.1%. On the same count and under the same terms, as for `O=C(Nc1cc(C(F)(F)F)cc(C(F)(F)F)c1)c1cccc(Cl)c1O` [(61)], the figure is more than 90%; as for `O=C(Nc1cc(OCC(F)(F)F)cc(C(F)(F)F)c1)c1cc(Cl)ccc1O` [(63)], 79.5%; as for `CCCCCCOc1ccc(S(C)(=O)=O)cc1NC(=O)c1cc(Cl)ccc1O` [(64)], 73.6%. Turning to `Cc1ccc(C(=O)C(C)(C)C)cc1NC(=O)c1cc(Cl)ccc1O` [(65)], the “Inhibition Ratio (PAI-1)” value is on record as 85.5%. On to `Cc1ccc(-c2ccccc2)cc1NC(=O)c1cc(Cl)ccc1O` [(66)], for which the “Inhibition Ratio (PAI-1)” value stood at 84.1%. Consider `O=C(Nc1cccc(C(F)(F)F)c1)c1cc(Cl)ccc1O` [(67)], for which the “Inhibition Ratio (PAI-1)” value is listed as more than 90%. For `O=C(Nc1cccc(OC(F)(F)F)c1)c1cc(Cl)ccc1O` [(68)], the “Inhibition Ratio (PAI-1)” value is on record as more than 90%. In the case of `O=C(Nc1ccc(OC(F)(F)F)cc1)c1cc(Cl)ccc1O` [(70)], the “Inhibition Ratio (PAI-1)” value was more than 90%.

Regarding `O=C(Nc1ccc(Cl)cc1Cl)c1cc(Cl)ccc1O` [(71)], the “Inhibition Ratio (PAI-1)” value is given as more than 90%. The same measure, in the same setting: the same measure for `CC(C)(C)c1ccc(NC(=O)c2cc(Cl)ccc2O)cc1` [(72)]: 71.4%; for `CCCCCCc1ccc(NC(=O)c2cc(Cl)ccc2O)cc1` [(73)]: more than 90%; for `O=C(Nc1ccc(C2CCCCC2)cc1)c1cc(Cl)ccc1O` [(74)]: 87.3%. Take `O=C(Nc1ccccc1Cl)c1cc(Cl)ccc1O` [(77)]: the “Inhibition Ratio (PAI-1)” value was found to be 74.3%.

For `CCCCc1ccc(NC(=O)c2cc(Cl)ccc2O)cc1` [(78)], the “Inhibition Ratio (PAI-1)” value stood at 80.6%. As to `CC(C)c1cccc(NC(=O)c2cc(Cl)ccc2O)c1` [(81)], the “Inhibition Ratio (PAI-1)” value was determined as 40.0%.

On to `O=C(Nc1cccc(SC(F)(F)F)c1)c1cc(Cl)ccc1O` [(82)], for which the “Inhibition Ratio (PAI-1)” value is more than 90%. On to `O=C(Nc1ccc(SC(F)(F)F)cc1)c1cc(Cl)ccc1O` [(83)], for which the “Inhibition Ratio (PAI-1)” value is listed as more than 90%.

As to `O=C(Nc1ccc(S(=O)(=O)C(F)(F)F)cc1)c1cc(Cl)ccc1O` [(84)], the “Inhibition Ratio (PAI-1)” value is given as more than 90%. With `O=C(Nc1ccc(F)c(F)c1)c1cc(Cl)ccc1O` [(85)], the “Inhibition Ratio (PAI-1)” value was 84.0%. On to `CCC(C)c1ccc(NC(=O)c2cc(Cl)ccc2O)cc1` (stereo not shown) [(87)], for which the “Inhibition Ratio (PAI-1)” value was found to be 89.6%. Consider `O=C(Nc1ccc(OC(F)F)cc1)c1cc(Cl)ccc1O` [(90)], for which the “Inhibition Ratio (PAI-1)” value is recorded as more than 90%. With `CC(C)(C)c1cccc(NC(=O)c2cc(Cl)ccc2O)c1` [(92)], the “Inhibition Ratio (PAI-1)” value was more than 90%. For `O=C(Nc1cccc(S(=O)(=O)C(F)(F)F)c1)c1cc(Cl)ccc1O` [(94)], the “Inhibition Ratio (PAI-1)” value is more than 90%. Turning to `CCCCCCOc1cccc(NC(=O)c2cc(Cl)ccc2O)c1` [(95)], the “Inhibition Ratio (PAI-1)” value is on record as 60.1%. The same measure, in the same setting: as for `O=C(Nc1ccc(-c2ccccc2)cc1)c1cc(Cl)ccc1O` [(96)], the figure is 71.0%. Turning to `O=C(Nc1cc(C(F)(F)F)cc(C(F)(F)F)c1)c1cccc(-c2ccccc2)c1O` [(97)], the “Inhibition Ratio (PAI-1)” value came to 79.5%.

For the compound `CC(C)c1cccc(C(=O)Nc2cc(C(F)(F)F)cc(C(F)(F)F)c2)c1O` [(98)], the “Inhibition Ratio (PAI-1)” value is listed as 42.2%. For the compound `CC(C)c1cc(Br)cc(C(=O)Nc2cc(C(F)(F)F)cc(C(F)(F)F)c2)c1O` [(99)], the “Inhibition Ratio (PAI-1)” value is reported as 89.4%.

For the compound `Cc1cc(Br)cc(C(=O)Nc2cc(C(F)(F)F)cc(C(F)(F)F)c2)c1O` [(100)], the “Inhibition Ratio (PAI-1)” value was more than 90%. As for `O=C(Nc1cc(C(F)(F)F)cc(C(F)(F)F)c1)c1cc(Br)cc(-c2ccccc2)c1O` [(103)], the “Inhibition Ratio (PAI-1)” value is given as more than 90%. On the same count and under the same terms, the same measure for `O=C(Nc1cc(C(F)(F)F)cc(C(F)(F)F)c1)c1ccc(-c2ccccc2)cc1O` [(106)]: more than 90%.

(Values after patent publication US20090239868A1 (priority 2007, published 2009).)
